System: chytrids
Test: % chytrid infection in 230 L reactors, salt treatment (Example 12)
Format: cell-based
Method: This test was done side by side in flasks (0.1 L) and in reactors located in a greenhouse operating in conditions: reactor volume of 230 L; Daily PAR of 20 mol m^−2 d^−1; pH (not measured); and paddlewheel speed of 21 RPM. […] The flask cultures were mixed by shaking at 140 rpm and received 300-400 μmol/m^2 s of photosynthetically active radiation (PAR) in 12 hour light cycles and constant supply of 2.5% CO2. The motility of the culture was monitored by visual observation under a microscope. […] Nine 230 L reactors were also seeded with culture from bioreactor #2410 on the same day as the flasks and brought to 2 ppt concentration of salt. Once motility of the cells was reduced to <10% (day 3 of culture for flasks and day 2 for 230 L reactors) the level of salt was elevated to a point between 4-18 ppt and compared to the culture in two reactors remaining at 2 ppt salt. Flasks and 230 L reactors were monitored for percentage of cell lysis via visual observation under a microscope, culture dry weight (biomass accumulation in g/L), and percentage of chytrid infection via visual observation under a microscope. Carotenoid production, a proxy for determining astaxanthin, was quantified every other day of culture in the 230 L reactors using the UV method.

SMILES: [Cl-].[Na+] [NaCl, sodium chloride]
- % Chytrid infection in 230L reactors (4 ppt, 2 d): 0.00%
- % Chytrid infection in 230L reactors (4 ppt, 3 d): 1.67%
- % Chytrid infection in 230L reactors (4 ppt, 4 d): 0.00%
- % Chytrid infection in 230L reactors (4 ppt, 5 d): 0.00%
- % Chytrid infection in 230L reactors (4 ppt, 6 d): 0.00%
- % Chytrid infection in 230L reactors (4 ppt, 7 d): 1.67%
- % Chytrid infection in 230L reactors (4 ppt, 8 d): 0.00%
- % Chytrid infection in 230L reactors (4 ppt, 9 d): 11.67%
- % Chytrid infection in 230L reactors (4 ppt, 10 d): 30.00%
- % Chytrid infection in 230L reactors (4 ppt, 11 d): 36.67%
- % Chytrid infection in 230L reactors (4 ppt, 12 d): 65.00%
- % Chytrid infection in 230L reactors (5 ppt, 2 d): 1.67%
- % Chytrid infection in 230L reactors (5 ppt, 3 d): 0.00%
- % Chytrid infection in 230L reactors (5 ppt, 4 d): 1.67%
- % Chytrid infection in 230L reactors (5 ppt, 5 d): 0.00%
- % Chytrid infection in 230L reactors (5 ppt, 6 d): 0.00%
- % Chytrid infection in 230L reactors (5 ppt, 7 d): 8.33%
- % Chytrid infection in 230L reactors (5 ppt, 8 d): 0.00%
- % Chytrid infection in 230L reactors (5 ppt, 9 d): 10.00%
- % Chytrid infection in 230L reactors (5 ppt, 10 d): 3.33%
- % Chytrid infection in 230L reactors (5 ppt, 11 d): 13.33%
- % Chytrid infection in 230L reactors (5 ppt, 12 d): 28.33%
- % Chytrid infection in 230L reactors (6 ppt, 2 d): 1.67%
- % Chytrid infection in 230L reactors (6 ppt, 3 d): 0.00%
- % Chytrid infection in 230L reactors (6 ppt, 4 d): 1.67%
- % Chytrid infection in 230L reactors (6 ppt, 5 d): 1.67%
- % Chytrid infection in 230L reactors (6 ppt, 6 d): 1.67%
- % Chytrid infection in 230L reactors (6 ppt, 7 d): 5.00%
- % Chytrid infection in 230L reactors (6 ppt, 8 d): 3.33%
- % Chytrid infection in 230L reactors (6 ppt, 9 d): 0.00%
- % Chytrid infection in 230L reactors (6 ppt, 10 d): 1.67%
- % Chytrid infection in 230L reactors (6 ppt, 11 d): 0.00%
- % Chytrid infection in 230L reactors (6 ppt, 12 d): 15.00%
- % Chytrid infection in 230L reactors (7 ppt, 2 d): 3.33%
- % Chytrid infection in 230L reactors (7 ppt, 3 d): 0.00%
- % Chytrid infection in 230L reactors (7 ppt, 4 d): 0.00%
- % Chytrid infection in 230L reactors (7 ppt, 5 d): 1.67%
- % Chytrid infection in 230L reactors (7 ppt, 6 d): 0.00%
- % Chytrid infection in 230L reactors (7 ppt, 7 d): 5.00%
- % Chytrid infection in 230L reactors (7 ppt, 8 d): 1.67%
- % Chytrid infection in 230L reactors (7 ppt, 9 d): 3.33%
- % Chytrid infection in 230L reactors (7 ppt, 10 d): 5.00%
- % Chytrid infection in 230L reactors (7 ppt, 11 d): 0.00%
- % Chytrid infection in 230L reactors (7 ppt, 12 d): 3.33%
- % Chytrid infection in 230L reactors (8 ppt, 2 d): 0.00%
- % Chytrid infection in 230L reactors (8 ppt, 3 d): 0.00%
- % Chytrid infection in 230L reactors (8 ppt, 4 d): 0.00%
- % Chytrid infection in 230L reactors (8 ppt, 5 d): 1.67%
- % Chytrid infection in 230L reactors (8 ppt, 6 d): 0.00%
- % Chytrid infection in 230L reactors (8 ppt, 7 d): 0.00%
- % Chytrid infection in 230L reactors (8 ppt, 8 d): 0.00%
- % Chytrid infection in 230L reactors (8 ppt, 9 d): 0.00%
- % Chytrid infection in 230L reactors (8 ppt, 10 d): 1.67%
- % Chytrid infection in 230L reactors (8 ppt, 11 d): 1.67%
- % Chytrid infection in 230L reactors (8 ppt, 12 d): 3.33%
- % Chytrid infection in 230L reactors (10 ppt, 2 d): 0.00%
- % Chytrid infection in 230L reactors (10 ppt, 3 d): 0.00%
- % Chytrid infection in 230L reactors (10 ppt, 4 d): 1.67%
- % Chytrid infection in 230L reactors (10 ppt, 5 d): 0.00%
- % Chytrid infection in 230L reactors (10 ppt, 6 d): 0.00%
- % Chytrid infection in 230L reactors (10 ppt, 7 d): 0.00%
- % Chytrid infection in 230L reactors (10 ppt, 8 d): 0.00%
- % Chytrid infection in 230L reactors (10 ppt, 9 d): 1.67%
- % Chytrid infection in 230L reactors (10 ppt, 10 d): 0.00%
- % Chytrid infection in 230L reactors (10 ppt, 11 d): 6.67%
- % Chytrid infection in 230L reactors (10 ppt, 12 d): 3.33%
- % Chytrid infection in 230L reactors (18 ppt, 2 d): 0.00%
- % Chytrid infection in 230L reactors (18 ppt, 3 d): 0.00%
- % Chytrid infection in 230L reactors (18 ppt, 4 d): 0.00%
- % Chytrid infection in 230L reactors (18 ppt, 5 d): 3.33%
- % Chytrid infection in 230L reactors (18 ppt, 6 d): 0.00%
- % Chytrid infection in 230L reactors (18 ppt, 7 d): 0.00%
- % Chytrid infection in 230L reactors (18 ppt, 8 d): 1.67%
- % Chytrid infection in 230L reactors (18 ppt, 9 d): 3.33%
- % Chytrid infection in 230L reactors (18 ppt, 10 d): 0.00%
- % Chytrid infection in 230L reactors (18 ppt, 11 d): 1.67%
- % Chytrid infection in 230L reactors (18 ppt, 12 d): 1.67%
- chytrid infection (treatments at 7 ppt and above in 230 L reactors): 5-10%

Source: patent publication US20160281050A1, “METHODS FOR TREATING A CULTURE OF HAEMATOCOCCUS PLUVIALIS FOR CONTAMINATION USING SALT AND HYDROGEN PEROXIDE” (HELIAE DEVELOPMENT LLC, priority 2015, published 2016)
